Measurements from article PMC12389534, “Unlocking Therapeutic Potential of Novel Thieno-Oxazepine Hybrids as Multi-Target Inhibitors of AChE/BChE and Evaluation Against Alzheimer’s Disease: In Vivo, In Vitro, Histopathological, and Docking Studies” (Pharmaceuticals, 2025).

Key:
[1] = system: AlCl3-induced AD rat model; experiment: Morris water maze (MWM) test in AlCl3-induced AD rats; format: in vivo; settings: for Learning (s): escape latency; for Learning (s) / Memory (s): mean ± SE, n = 6; for Memory (s): time spent in target quadrant
Protocol: All procedures were conducted conforming to the applicable National Institutes of Health standards and regulations for the Care and Use of Laboratory Animals. In this experiment, adult male Dawley rats in excellent condition weighing between 300 and 320 g were used. The animals were acquired from the Nile Company for Pharmaceuticals and Chemical Industries (Cairo, Egypt). They were placed in a controlled laboratory setting with unrestricted access to water, a temperature range of 24 to 26 °C, and 12 h a light–dark cycle. Three rats per cage were housed in polycarbonate cages that were individually packed with paper and encased with stainless steel wire.
Spatial learning and memory were inspected using the MWM test. Tap water was poured into a 150 cm diameter by 60 cm high circular water tank until it reached a depth of 30 cm (25 ± 2 °C). To make the water […], non-toxic white dye was applied. The east, west, north, and south quadrants of the pool were essentially separated into four equal sections. At a specific spot in the middle of one quadrant, an escape platform with a diameter of 10 cm was submerged 2 cm below the water’s surface. The platform stood in the exact same quadrant throughout the testing. The rats’ swimming route was recorded by a video camera situated above the pool. From a designated spot in each quadrant, each rat was submerged in the water with its back turned to the pool wall, and it was then left to swim to the platform. The rats received training sessions every day for three days in a row, with four trials conducted in each session. Before the next trial began, the animals were kept a maximum of 60 s to explore the hidden platform. After that, they were permitted to relax on it for 20 s. The rat was positioned gently on the platform and allowed 20 s to rest if it took longer than 60 s to locate it. The time taken to find the platform, or the escape latency, was documented. In order to do a probing test on the fourth day, the platform was detached away, and the rats were given 60 s to swim liberally. The time spent in the assigned quadrant was counted.

[2] = system: Amyloid-β; experiment: Brain amyloid-β level (ELISA); format: in vivo, rat; parameters: reduction of β-amyloid levels: concentration or dose not given beside the values; settings: AlCl3-induced AD rats; for Amyloid-β (ng/g Tissue): brain, mean ± SE, n = 6
Protocol: (§1) The brain tissues of the rats were removed and rigorously washed in isotonic saline 24 h after they were euthanized following the last behavioral test. For histological investigation, four brains per group were preserved for the whole night in 10% neutral buffered formalin. The remaining six brains were split into two sections each. In order to create a 10% homogenate (w/v), the first component was instantaneously homogenized using an ice-cold solution that included 300 mM sucrose and 50 mM Tris-HCl (pH 7.4). The homogenate was centrifuged at 1800× g for 10 min at 4 °C for biochemical tests, and the supernatant was thereafter kept at −20 °C. The second portion was set aside for use in RT-PCR analysis at −80 °C [94].
(§2) See Supplementary Information.

[3] = system: 5-HT; experiment: Brain 5-HT level (fluorometric); format: in vivo, rat; settings: AlCl3-induced AD rats; for 5-HT (ng/g Tissue): brain tissue, mean ± SE, n = 6
Protocol: as §1
Brain monoamine levels were promptly assessed following the rats’ euthanasia to prevent changes in the substance’s concentration. Dopamine (DA), norepinephrine (NE), and serotonin (5-HT) fluorometric tests were conducted on brain tissue homogenate using the Ciarlone method. […] The concentrations were articulated as nanograms per gram of fresh tissue using the fluorescence of reference solutions [95].

[4] = system: TNF-α; experiment: Brain TNF-α level (ELISA); format: in vivo, rat; settings: AlCl3-induced AD rats; for TNF-α (pg/g Tissue): mean ± SE, n = 6
Protocol: as §1, with “[94]. […]” for “[94].”

[5] = system: IL-1β; experiment: Brain IL-1β level (ELISA); format: in vivo, rat; parameters: reduction in IL-1β levels: concentration or dose not given beside the values; settings: AlCl3-induced AD rats; for IL-β (pg/g Tissue): mean ± SE, n = 6
Protocol: as §1, with “[94]. […]” for “[94].”

[6] = system: NLRP3; experiment: NLRP3 mRNA expression (RT-qPCR); format: in vivo, rat; parameters: reduction of NLRP3 mRNA expression: concentration or dose not given beside the values; settings: AlCl3-induced AD rats; for NLRP3: mRNA expression level, mean ± SE, n = 6
Protocol: as §1, §2

[7] = system: BAX; experiment: BAX gene expression (RT-qPCR); format: in vivo, rat; settings: AlCl3-induced AD rats; for BAX: gene expression, mean ± SE, n = 6
Protocol: as §1, §2

[8] = system: GSK3β; experiment: GSK3β gene expression (RT-qPCR); format: in vivo, rat; settings: AlCl3-induced AD rats; for GSK3β: gene expression, mean ± SE, n = 6
Protocol: as §1, §2

[9] = system: Nrf-2; experiment: Nrf-2 mRNA expression (RT-qPCR); format: in vivo, rat; settings: AlCl3-induced AD rats; for Nrf-2: mRNA expression in brain tissue, mean ± SE, n = 6
Protocol: as §1, §2

[10] = biological target: T1, AChE (Homo sapiens, UniProt P22303); experiment: biochemical; settings: colorimetric kit, 412 nm
T1 construct: purchased BioVision K197-100
Protocol: All newly created compounds were subjected to an AChE enzyme inhibitory screening. This was performed with the Colorimetric AChE Inhibitor Screening Kit (BioVision Catalog # K197-100). The 96-well assay kit provides a rapid, simple, and reliable way to screen for AChE inhibitors in large quantities. […] A completely transparent 96-well plate with a flat bottom was loaded with 10 µL of test inhibitors that were diluted (20×). […] A measure of 10 μL of diluted AChE was applied to each well that contained compounds, inhibitor control, and solvent control. […] Measures of 25 μL of AChE assay buffer, 5 μL of probe mix, and 10 μL of diluted AChE substrate were mixed to create the reaction mix. The reaction mix was mixed with the compound, enzyme control, and inhibitor control. […] The IC50 was calculated using nonlinear regression analysis using the response–concentration (log) curve.

[11] = biological target: T2, BChE (Homo sapiens, UniProt P06276); experiment: biochemical; settings: for IC50: fluorescence kit, triplicate; for Selectivity Index BChE/AChE: ratio of IC50 BChE to IC50 AChE, <1 = preferential BChE inhibition
T2 construct: purchased Invitrogen EIABCHEF
Protocol: Using an Invitrogen BChE test kit (Catalog #EIABCHEF), the assay was performed in compliance with the supplier’s instructions. The study was conducted using black 96-well plates. […] Each well was then filled with 50 μL of the reaction mixture, which consisted of fluorescence detection reagent and butyrylthiocholine iodide in assay buffer. The plate was then left to incubate for 20 min at room temperature. Finally, excitation at 390 nm was used to observe emission at 510 nm using a microplate reader. Background fluorescence was further eliminated for each data point.

[12] = system: BAX/Bcl-2; experiment: BAX/Bcl-2 ratio of gene expression; format: in vivo, rat; settings: AlCl3-induced AD rats
Protocol: as §1, §2

T1 sequence (P22303 32-614): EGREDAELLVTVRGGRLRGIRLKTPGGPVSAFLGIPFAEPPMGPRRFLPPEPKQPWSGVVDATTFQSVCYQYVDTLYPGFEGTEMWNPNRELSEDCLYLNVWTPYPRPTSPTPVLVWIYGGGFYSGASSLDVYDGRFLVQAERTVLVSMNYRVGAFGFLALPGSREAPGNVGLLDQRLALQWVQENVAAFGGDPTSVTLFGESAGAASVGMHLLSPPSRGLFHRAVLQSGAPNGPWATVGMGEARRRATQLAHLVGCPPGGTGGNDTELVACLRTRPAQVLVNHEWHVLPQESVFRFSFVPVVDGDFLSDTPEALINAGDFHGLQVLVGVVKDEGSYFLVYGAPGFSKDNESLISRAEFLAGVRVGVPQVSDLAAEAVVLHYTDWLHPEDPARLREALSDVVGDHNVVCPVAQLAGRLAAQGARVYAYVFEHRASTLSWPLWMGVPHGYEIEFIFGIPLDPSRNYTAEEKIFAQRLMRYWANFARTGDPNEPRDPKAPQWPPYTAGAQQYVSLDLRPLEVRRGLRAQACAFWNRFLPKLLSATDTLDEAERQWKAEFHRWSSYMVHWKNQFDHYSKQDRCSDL
T2 sequence (P06276 29-602): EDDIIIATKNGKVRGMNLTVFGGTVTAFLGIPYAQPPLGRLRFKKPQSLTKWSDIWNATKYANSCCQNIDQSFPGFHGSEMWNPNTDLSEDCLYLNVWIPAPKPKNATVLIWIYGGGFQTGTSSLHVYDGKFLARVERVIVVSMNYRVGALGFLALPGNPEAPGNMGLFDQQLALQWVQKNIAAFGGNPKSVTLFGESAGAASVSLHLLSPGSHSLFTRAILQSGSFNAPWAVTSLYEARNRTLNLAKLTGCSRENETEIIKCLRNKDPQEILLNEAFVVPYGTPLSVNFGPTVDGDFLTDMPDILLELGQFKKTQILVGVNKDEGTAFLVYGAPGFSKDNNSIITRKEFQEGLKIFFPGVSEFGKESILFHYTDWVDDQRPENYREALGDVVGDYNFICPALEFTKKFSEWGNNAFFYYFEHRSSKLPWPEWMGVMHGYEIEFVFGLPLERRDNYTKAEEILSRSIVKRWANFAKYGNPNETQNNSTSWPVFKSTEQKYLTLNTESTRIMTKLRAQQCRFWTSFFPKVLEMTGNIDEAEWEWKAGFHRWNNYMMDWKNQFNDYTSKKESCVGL

Row | Structure (SMILES) | increase in quadrant residence time [1] | Learning (s) [1] | Memory (s) [1] | reduction of β-amyloid levels [2] | Amyloid-β (ng/g Tissue) [2] | elevation of 5-HT levels [3] | 5-HT (ng/g Tissue) [3] | decline in TNF-α levels [4] | TNF-α (pg/g Tissue) [4] | reduction in IL-1β levels [5] | IL-β (pg/g Tissue) [5] | reduction of NLRP3 mRNA expression [6] | NLRP3 [6] | BAX [7] | GSK3β [8] | Nrf-2 [9] | IC50 [10] | IC50 [11] | Selectivity Index BChE/AChE [11] | BAX/Bcl-2 Ratio [12] | further results
1 | COc1ccc(N2CC(=O)Oc3sc4c(c3C2=O)CCCCC4)cc1 [Compound 16, 4-(4-Methoxyphenyl)-3,4,7,8,9,10-hexahydro-6H-cyclohepta[4,5]thieno[3,2-f][1,4]oxa-zepine-2,5-dione] | 3.6 times | 26.83 ± 1.2 ^abc s | 36.00 ± 1.27 ^abc s | 55.4% | 12.44 ± 0.14 ^abc ng/g Tissue | 5.9 fold | 10.65 ± 0.71 ^abc ng/g Tissue | 51.6% | 85.17 ± 0.46 ^abc pg/g Tissue | 55.2% | 53.04 ± 0.61 ^abc pg/g Tissue | 59.5% | 4.32 ± 0.10 ^abc | 6.14 ± 0.090 ^abc | 2.18 ± 0.10 ^abc | 0.47 ± 0.005 ^abc | 0.76 ± 0.03 µM | 5.23 ± 0.18 µM | 6.89 | 9.75 | suppression of BAX gene expression [7]: 36.5%; elevation of Nrf-2 mRNA expression [9]: 2.9 fold
2 | N#Cc1ccc(N2CC(=O)Oc3sc4c(c3C2=O)CCCCC4)cc1 [Compound 13, 4-(2,5-Dioxo-2,3,7,8,9,10-hexahydro-6H-cyclohepta[4,5]thieno[3,2-f][1,4]oxazepin-4(5H)-yl)benzonitrile] | about 4.1 times | 14.17 ± 0.95 ^abc s | 40.50 ± 2.62 ^abc s | 67.6% | 9.04 ± 0.9 ^abc ng/g Tissue | 4.1 fold | 7.39 ± 0.1 ^abc ng/g Tissue | 70.2% | 52.38 ± 0.59 ^abc pg/g Tissue | 61.3% | 45.79 ± 1.34 ^abc pg/g Tissue | 73.2% | 2.86 ± 0.11 ^abc | 5.80 ± 0.120 ^abc | 3.63 ± 0.04 ^abc | 0.78 ± 0.010 ^abc | 5.04 ± 0.17 µM | 4.22 ± 0.14 µM | 0.84 | 7.34 | reduction in escape latency [1]: 71.2%; elevation of Nrf-2 mRNA expression [9]: 4.8 fold
3 | CCOC(=O)c1c(O)sc2c1CCCCC2 [Compound 2, Ethyl 2-hydroxy-5,6,7,8-tetrahydro-4H-cyclohepta[b]thiophene-3-carboxylate] |  | 33.33 ± 0.8 ^abc s | 24.17 ± 1.22 ^abc s | 30.2% | 19.52 ± 0.15 ^abc ng/g Tissue | 1.7 fold | 3.16 ± 0.63 ^abc ng/g Tissue | 31% | 121.4 ± 0.97 ^abc pg/g Tissue | 20.6% | 93.93 ± 1.26 ^abc pg/g Tissue |  | 8.29 ± 0.09 ^abc | 8.13 ± 0.070 ^abc | 8.80 ± 0.12 ^abc | 0.25 ± 0.008 ^abc | 1.1 ± 0.04 µM | 5.72 ± 0.2 µM | 5.21 | 30.11 | reduction in escape latency [1]: 32.2%; suppression of BAX gene expression [7]: 16%; reduction of GSK3β gene expression [8]: 13.7%
4 | O=C1CN(c2ccc(Cl)cc2)C(=O)c2c(sc3c2CCCCC3)O1 [Compound 12, 4-(4-Chlorophenyl)-3,4,7,8,9,10-hexahydro-6H-cyclohepta[4,5]thieno[3,2-f][1,4]oxazepine-2,5-dione] | 3.7 times | 23.5 ± 1.23 ^abc s | 37.17 ± 1.52 ^abc s | 62.3% | 10.51 ± 0.1 ^abc ng/g Tissue | 2.8 fold | 5.07 ± 0.18 ^abc ng/g Tissue | 62.5% | 65.98 ± 0.91 ^abc pg/g Tissue | 53.9% | 54.51 ± 1.3 ^abc pg/g Tissue | 69.9% | 3.21 ± 0.12 ^abc | 4.85 ± 0.110 ^abc | 5.36 ± 0.07 ^abc | 0.64 ± 0.020 ^abc | 10.9 ± 0.38 µM | 65.9 ± 2.27 µM | 6.04 | 5.91 | reduction of GSK3β gene expression [8]: 47.4%; elevation of Nrf-2 mRNA expression [9]: 4 fold
